Values quoted from earlier work in US6063370A, “Macromolecular complexes for drug delivery” (The Board of Trustees of the University of Illinois, priority 1998, dated 2000).

Conditions: heparin having an Mw of about 6,000

Substance: heparin
- Bioavailability: 85%
